According to patent US20260008862A1, “Bispecific Anti-BCMA x Anti-CD3 Antibodies and Uses Thereof” (Regeneron Pharmaceuticals, Inc., priority 2018, published 2026):

What was measured:
Assay type in all cases: in vivo, mouse
[1] = system: BCMA-expressing NCI-H929 tumors; experiment: NCI-H929 + PBMC xenogenic tumor model, immediate treatment, 4 mg/kg (Example 10)
Protocol: To determine the in vivo efficacy of BCMA×CD3 bispecific antibodies (Abs), a xenogenic tumor study was performed. Immunodeficient NOD.Cg-Prkdc^scidIl2rg^tm1Wji/SzJ (NSG) mice were subcutaneously implanted with a mixture of 10×10^6 BCMA-expressing NCI-H929 multiple myeloma cells and 0.5×10^6 human peripheral blood mononuclear cells (PBMC) isolated from a normal donor. […] The mice were administered Abs twice per week for a total of three weeks, and tumor growth was assessed over 40 days. While BCMA^+ tumors grew similarly in the vehicle-, isotype control-, and CD3-binding control-treated mice, both BCMA×CD3 Abs that were tested prevented the growth of tumors in vivo.
(§1) Implantation and measurement of syngeneic tumors: NSG mice were subcutaneously implanted with a mixture of 10×10^6 BCMA-expressing NCI-H929 multiple myeloma cells and 0.5×10^6 PBMC derived from a normal donor. […] The mice were administered Abs twice per week for a total of three weeks. Tumor growth was measured with calipers twice per week for the duration of the experiment. Mice were sacrificed 40 days after tumor implantation.
(§2) Calculation of syngeneic tumor growth and inhibition: In order to determine tumor volume by external caliper, the greatest longitudinal diameter (length in mm) and the greatest transverse diameter (width in mm) were determined. Tumor volumes based on caliper measurements were calculated by the formula: Volume (mm^3)=(length×width^2)/2.

[2] = system: BCMA-expressing NCI-H929 tumors; experiment: NCI-H929 + PBMC xenogenic tumor model, immediate treatment, dose response (Example 11)
Protocol: To determine the in vivo efficacy of anti-BCMA×anti-CD3 bispecific antibodies (Abs), a xenogenic tumor study was performed. Immunodeficient NOD.Cg-Prkdc^scidIl2rg^tm1Wji/SzJ (NSG) mice were subcutaneously implanted with a mixture of 10×10^6 BCMA-expressing NCI-H929 human multiple myeloma tumor cells and 0.5×10^6 human peripheral blood mononuclear cells (PBMC) isolated from a normal, healthy donor. […] The mice were administered these Abs twice per week for a total of seven doses, and tumor growth was assessed over 60 days. While BCMA^+ NCI-H929 tumors grew similarly in the vehicle- and CD3-binding control-treated mice, both anti-BCMA×anti-CD3 Abs that were tested prevented the growth of tumors in a dose-dependent manner in vivo.
as §1, with “xenogenic” for “syngeneic”, “normal, healthy” for “normal”, “seven doses.” for “three weeks.”, “experiment.” for “experiment. Mice were sacrificed 40 days after tumor implantation.”
as §2, with “xenogenic” for “syngeneic”

[3] = system: BCMA-expressing MOLP-8 tumors; experiment: MOLP-8 + PBMC subcutaneous xenogenic tumor model, dose response (Example 13)
Protocol: To determine the in vivo efficacy of anti-BCMA×anti-CD3 bispecific antibodies (Abs), a xenogenic tumor study was performed. Immunodeficient NOD.Cg-Prkdc^scidIl2rg^tm1Wji/SzJ (NSG) mice were subcutaneously implanted with a mixture of 5×10^6 BCMA-expressing MOLP-8 human multiple myeloma tumor cells and 1×10^6 human peripheral blood mononuclear cells (PBMC) isolated from a normal, healthy donor. […] The mice were administered these Abs twice per week for a total of seven doses, and tumor growth was assessed over 56 days. While the BCMA^+ MOLP-8 tumors grew similarly in the vehicle- and CD3-binding control-treated mice, both BCMA×CD3 Abs that were tested prevented the growth of tumors in a dose-dependent manner in vivo.
Implantation and measurement of xenogenic tumors: NSG mice were subcutaneously implanted with a mixture of 5×10^6 BCMA-expressing MOLP-8 multiple myeloma cells and 1×10^6 PBMC derived from a normal, healthy donor. […] The mice were administered Abs twice per week for a total of seven doses. Tumor growth was measured by caliper twice per week for the duration of the experiment.
as §2, with “xenogenic” for “syngeneic”

## REGN5459: anti-BCMA×anti-CD3 bispecific antibody: BCMA HCVR of mAb21581 (SEQ 66), CD3 HCVR of mAb7221G20 (SEQ 98), common LCVR SEQ 82
[1]; Day 4
  Average Tumor Size (mm3) ± SEM on Day 4: 26.5 ± 6.2 mm3
[1]; Day 7
  Average Tumor Size (mm3) ± SEM on Day 7: 0 ± 0 mm3
[1]; Day 11
  Average Tumor Size (mm3) ± SEM on Day 11: 0 ± 0 mm3
[1]; Day 14
  Average Tumor Size (mm3) ± SEM on Day 14: 0 ± 0 mm3
[1]; Day 18
  Average Tumor Size (mm3) ± SEM on Day 18: 0 ± 0 mm3
[1]; Day 21
  Average Tumor Size (mm3) ± SEM on Day 21: 0 ± 0 mm3
[1]; Day 28
  Average Tumor Size (mm3) ± SEM on Day 28: 0 ± 0 mm3
[1]; Day 40
  Average Tumor Size (mm3) ± SEM on Day 40: 0 ± 0 mm3
[2]; 0.04 mg/kg
  Average Tumor Size (mm3) ± SEM on Day 4: 33.0 ± 4.4 mm3
  Average Tumor Size (mm3) ± SEM on Day 7: 8.4 ± 4.0 mm3
  Average Tumor Size (mm3) ± SEM on Day 12: 0 ± 0 mm3
  Average Tumor Size (mm3) ± SEM on Day 19: 23.1 ± 23.1 mm3
  Average Tumor Size (mm3) ± SEM on Day 22: 69.5 ± 69.5 mm3
  Average Tumor Size (mm3) ± SEM on Day 26: 156.7 ± 156.7 mm3
  Average Tumor Size (mm3) ± SEM on Day 29: 226.6 ± 226.6 mm3
[2]; 0.4 mg/kg
  Average Tumor Size (mm3) ± SEM on Day 4: 19.6 ± 4.4 mm3
  Average Tumor Size (mm3) ± SEM on Day 12: 0 ± 0 mm3
  Average Tumor Size (mm3) ± SEM on Day 15: 0 ± 0 mm3
  Average Tumor Size (mm3) ± SEM on Day 19: 0 ± 0 mm3
  Average Tumor Size (mm3) ± SEM on Day 22: 0 ± 0 mm3
  Average Tumor Size (mm3) ± SEM on Day 26: 0 ± 0 mm3
  Average Tumor Size (mm3) ± SEM on Day 29: 0 ± 0 mm3
  Average Tumor Size (mm3) ± SEM on Day 34: 0 ± 0 mm3
  Average Tumor Size (mm3) ± SEM on Day 39: 0 ± 0 mm3
  Average Tumor Size (mm3) ± SEM on Day 42: 0 ± 0 mm3
  Average Tumor Size (mm3) ± SEM on Day 46: 0 ± 0 mm3
  Average Tumor Size (mm3) ± SEM on Day 55: 0 ± 0 mm3
  Average Tumor Size (mm3) ± SEM on Day 60: 0 ± 0 mm3
[2]; 4 mg/kg
  Average Tumor Size (mm3) ± SEM on Day 4: 21.8 ± 3.4 mm3
  Average Tumor Size (mm3) ± SEM on Day 7: 8.0 ± 4.3 mm3
  Average Tumor Size (mm3) ± SEM on Day 12: 1.7 ± 1.7 mm3
  Average Tumor Size (mm3) ± SEM on Day 15: 0 ± 0 mm3
  Average Tumor Size (mm3) ± SEM on Day 19: 0 ± 0 mm3
  Average Tumor Size (mm3) ± SEM on Day 22: 0 ± 0 mm3
  Average Tumor Size (mm3) ± SEM on Day 26: 0 ± 0 mm3
  Average Tumor Size (mm3) ± SEM on Day 29: 0 ± 0 mm3
  Average Tumor Size (mm3) ± SEM on Day 34: 0 ± 0 mm3
  Average Tumor Size (mm3) ± SEM on Day 39: 0 ± 0 mm3
  Average Tumor Size (mm3) ± SEM on Day 42: 0 ± 0 mm3
  Average Tumor Size (mm3) ± SEM on Day 46: 0 ± 0 mm3
  Average Tumor Size (mm3) ± SEM on Day 55: 0 ± 0 mm3
  Average Tumor Size (mm3) ± SEM on Day 60: 0 ± 0 mm3
[3]; 0.04 mg/kg
  Average Tumor Size (mm3) ± SEM on Day 3: 11.7 ± 2.1 mm3
  Average Tumor Size (mm3) ± SEM on Day 7: 37.0 ± 5.7 mm3
  Average Tumor Size (mm3) ± SEM on Day 10: 104 ± 23.0 mm3
  Average Tumor Size (mm3) ± SEM on Day 14: 356.7 ± 84.6 mm3
  Average Tumor Size (mm3) ± SEM on Day 17: 645.6 ± 140.9 mm3
  Average Tumor Size (mm3) ± SEM on Day 21: 1442.4 ± 310.7 mm3
  Average Tumor Size (mm3) ± SEM on Day 23: 2124.4 ± 444.1 mm3
  Average Tumor Size (mm3) ± SEM on Day 28: 1939.3 ± 840.6 mm3
  Average Tumor Size (mm3) ± SEM on Day 31: 2688.7 ± 1176.6 mm3
  Average Tumor Size (mm3) ± SEM on Day 35: 612.1 ± 0 mm3
[3]; 0.4 mg/kg
  Average Tumor Size (mm3) ± SEM on Day 3: 14.0 ± 1.6 mm3
  Average Tumor Size (mm3) ± SEM on Day 7: 0 ± 0 mm3
  Average Tumor Size (mm3) ± SEM on Day 10: 0 ± 0 mm3
  Average Tumor Size (mm3) ± SEM on Day 14: 0 ± 0 mm3
  Average Tumor Size (mm3) ± SEM on Day 17: 0 ± 0 mm3
  Average Tumor Size (mm3) ± SEM on Day 21: 0 ± 0 mm3
  Average Tumor Size (mm3) ± SEM on Day 23: 0 ± 0 mm3
  Average Tumor Size (mm3) ± SEM on Day 28: 0 ± 0 mm3
  Average Tumor Size (mm3) ± SEM on Day 31: 0 ± 0 mm3
  Average Tumor Size (mm3) ± SEM on Day 35: 0 ± 0 mm3
  Average Tumor Size (mm3) ± SEM on Day 42: 0 ± 0 mm3
  Average Tumor Size (mm3) ± SEM on Day 56: 0 ± 0 mm3
[3]; 4 mg/kg
  Average Tumor Size (mm3) ± SEM on Day 3: 12.9 ± 1.3 mm3
  Average Tumor Size (mm3) ± SEM on Day 7: 0.6 ± 0.6 mm3
  Average Tumor Size (mm3) ± SEM on Day 10: 0 ± 0 mm3
  Average Tumor Size (mm3) ± SEM on Day 14: 0 ± 0 mm3
  Average Tumor Size (mm3) ± SEM on Day 17: 0 ± 0 mm3
  Average Tumor Size (mm3) ± SEM on Day 21: 0 ± 0 mm3
  Average Tumor Size (mm3) ± SEM on Day 23: 0 ± 0 mm3
  Average Tumor Size (mm3) ± SEM on Day 28: 1.9 ± 1.9 mm3
  Average Tumor Size (mm3) ± SEM on Day 31: 3.8 ± 3.0 mm3
  Average Tumor Size (mm3) ± SEM on Day 35: 9.3 ± 7.5 mm3
  Average Tumor Size (mm3) ± SEM on Day 42: 12.8 ± 12.8 mm3
  Average Tumor Size (mm3) ± SEM on Day 56: 17.2 ± 17.2 mm3
